Columns and labels:
[1] = target: T1, Gamma-aminobutyric acid receptor subunit alpha-1 (Rattus norvegicus, UniProt P62813)
[2] = target: Gamma-aminobutyric acid receptor subunit alpha-1/alpha-2/beta-2/gamma-2 (Homo sapiens, UniProt P14867+P18507+P47869+P47870); format: protein-complex assay
Histamine H1 receptor = Histamine H1 receptor (Homo sapiens, UniProt P35367)
[3] = target: T2, Muscarinic acetylcholine receptor M1 (Homo sapiens, UniProt P11229); format: functional, cell-based
T2 sequence (P11229 whole entry): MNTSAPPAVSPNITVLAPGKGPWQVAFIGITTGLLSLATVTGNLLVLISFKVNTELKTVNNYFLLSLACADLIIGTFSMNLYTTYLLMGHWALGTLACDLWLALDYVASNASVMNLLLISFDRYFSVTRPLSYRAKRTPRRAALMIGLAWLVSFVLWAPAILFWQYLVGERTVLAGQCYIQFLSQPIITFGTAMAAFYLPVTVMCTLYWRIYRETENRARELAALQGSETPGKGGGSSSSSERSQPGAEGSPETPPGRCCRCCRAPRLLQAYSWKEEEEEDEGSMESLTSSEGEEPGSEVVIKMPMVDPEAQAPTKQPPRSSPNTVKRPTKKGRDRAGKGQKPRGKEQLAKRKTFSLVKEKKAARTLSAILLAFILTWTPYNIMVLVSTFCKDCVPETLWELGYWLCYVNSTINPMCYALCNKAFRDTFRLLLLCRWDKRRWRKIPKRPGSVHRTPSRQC

[4] = target: cGMP-inhibited 3',5'-cyclic phosphodiesterase 3A (Homo sapiens, UniProt Q14432); format: functional
Chain of cGMP-inhibited 3',5'-cyclic phosphodiesterase 3A (Q14432 whole entry): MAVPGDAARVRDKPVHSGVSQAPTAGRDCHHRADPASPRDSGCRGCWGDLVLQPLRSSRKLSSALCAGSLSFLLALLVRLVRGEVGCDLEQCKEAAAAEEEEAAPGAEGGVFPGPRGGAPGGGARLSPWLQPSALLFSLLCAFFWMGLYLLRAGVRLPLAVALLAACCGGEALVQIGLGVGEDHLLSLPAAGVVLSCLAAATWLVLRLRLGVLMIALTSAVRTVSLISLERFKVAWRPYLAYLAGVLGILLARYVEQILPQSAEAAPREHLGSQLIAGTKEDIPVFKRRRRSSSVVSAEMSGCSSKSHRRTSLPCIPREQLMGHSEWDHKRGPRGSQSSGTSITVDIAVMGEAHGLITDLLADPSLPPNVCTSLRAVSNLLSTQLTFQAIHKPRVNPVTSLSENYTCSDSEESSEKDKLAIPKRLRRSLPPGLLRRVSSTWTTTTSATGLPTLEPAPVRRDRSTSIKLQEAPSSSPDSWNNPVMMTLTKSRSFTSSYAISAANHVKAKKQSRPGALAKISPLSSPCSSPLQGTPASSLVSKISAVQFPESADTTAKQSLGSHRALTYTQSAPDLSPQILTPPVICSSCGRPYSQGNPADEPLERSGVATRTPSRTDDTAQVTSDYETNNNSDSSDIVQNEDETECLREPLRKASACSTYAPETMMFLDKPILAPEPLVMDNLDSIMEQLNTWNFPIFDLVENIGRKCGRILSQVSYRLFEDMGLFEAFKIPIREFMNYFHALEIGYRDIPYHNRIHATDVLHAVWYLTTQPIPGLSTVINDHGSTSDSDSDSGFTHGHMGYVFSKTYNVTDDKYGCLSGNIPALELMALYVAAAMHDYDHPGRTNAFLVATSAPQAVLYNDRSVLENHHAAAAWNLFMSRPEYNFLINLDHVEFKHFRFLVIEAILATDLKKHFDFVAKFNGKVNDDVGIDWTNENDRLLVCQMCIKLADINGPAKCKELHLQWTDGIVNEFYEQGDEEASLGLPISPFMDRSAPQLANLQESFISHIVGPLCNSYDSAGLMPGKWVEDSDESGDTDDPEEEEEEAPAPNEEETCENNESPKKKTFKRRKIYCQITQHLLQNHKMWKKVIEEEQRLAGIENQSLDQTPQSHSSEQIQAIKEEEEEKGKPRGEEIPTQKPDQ

[5] = target: T3, Alpha-2C adrenergic receptor (Homo sapiens, UniProt P18825); format: functional
T3 sequence (P18825 whole entry): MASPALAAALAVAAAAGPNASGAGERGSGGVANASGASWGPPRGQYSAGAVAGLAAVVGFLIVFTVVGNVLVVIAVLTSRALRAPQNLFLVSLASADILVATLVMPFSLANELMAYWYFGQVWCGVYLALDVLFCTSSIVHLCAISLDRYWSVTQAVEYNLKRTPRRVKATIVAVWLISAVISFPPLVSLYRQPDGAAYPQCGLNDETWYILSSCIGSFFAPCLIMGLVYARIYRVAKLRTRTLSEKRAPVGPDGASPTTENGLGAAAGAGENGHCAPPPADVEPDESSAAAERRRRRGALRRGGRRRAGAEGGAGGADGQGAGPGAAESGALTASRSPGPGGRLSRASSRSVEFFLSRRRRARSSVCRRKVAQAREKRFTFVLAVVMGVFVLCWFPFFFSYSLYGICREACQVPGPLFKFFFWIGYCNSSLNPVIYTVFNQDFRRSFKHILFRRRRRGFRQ

[6] = target: Sodium-dependent noradrenaline transporter (Homo sapiens, UniProt P23975)
Chain of Sodium-dependent noradrenaline transporter (P23975 whole entry): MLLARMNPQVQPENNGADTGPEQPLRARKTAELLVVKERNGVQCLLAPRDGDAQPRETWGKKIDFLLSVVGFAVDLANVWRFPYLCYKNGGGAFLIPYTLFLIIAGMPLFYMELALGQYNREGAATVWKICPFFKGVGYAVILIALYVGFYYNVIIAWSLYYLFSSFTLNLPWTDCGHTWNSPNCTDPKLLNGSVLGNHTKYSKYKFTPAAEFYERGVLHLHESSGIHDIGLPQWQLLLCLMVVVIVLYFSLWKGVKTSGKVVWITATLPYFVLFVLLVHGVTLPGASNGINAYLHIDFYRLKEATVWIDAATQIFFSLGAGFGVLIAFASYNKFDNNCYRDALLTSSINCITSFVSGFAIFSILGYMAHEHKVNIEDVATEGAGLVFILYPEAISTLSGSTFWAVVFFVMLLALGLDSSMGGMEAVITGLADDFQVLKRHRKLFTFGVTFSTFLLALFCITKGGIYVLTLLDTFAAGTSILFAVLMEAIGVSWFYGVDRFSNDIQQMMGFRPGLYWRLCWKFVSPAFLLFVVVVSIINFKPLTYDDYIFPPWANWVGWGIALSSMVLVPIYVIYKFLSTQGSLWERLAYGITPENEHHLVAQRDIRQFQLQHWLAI

Adenosine receptor A2a = Adenosine receptor A2a (Homo sapiens, UniProt P29274)
[7] = target: T2, Muscarinic acetylcholine receptor M1; format: functional, cell-based; remark: listed apart in the source
Cannabinoid receptor 1 = Cannabinoid receptor 1 (Homo sapiens, UniProt P21554); format: functional, cell-based
[8] = target: Glutamate receptor ionotropic, NMDA 1 (Rattus norvegicus, UniProt P35439)
D(3) dopamine receptor = D(3) dopamine receptor (Homo sapiens, UniProt P35462)
Chain of D(3) dopamine receptor (P35462 whole entry): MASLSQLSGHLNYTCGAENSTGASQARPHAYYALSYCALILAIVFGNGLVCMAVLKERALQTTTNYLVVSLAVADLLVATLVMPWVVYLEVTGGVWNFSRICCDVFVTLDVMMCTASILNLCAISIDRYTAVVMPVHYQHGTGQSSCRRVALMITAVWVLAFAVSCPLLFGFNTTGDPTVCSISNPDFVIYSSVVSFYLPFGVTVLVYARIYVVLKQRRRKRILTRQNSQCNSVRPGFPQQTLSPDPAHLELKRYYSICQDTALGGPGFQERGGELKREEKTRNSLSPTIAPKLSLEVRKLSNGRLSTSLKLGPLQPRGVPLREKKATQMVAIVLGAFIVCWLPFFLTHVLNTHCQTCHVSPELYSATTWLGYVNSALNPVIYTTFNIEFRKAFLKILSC

[9] = target: Delta-type opioid receptor (Homo sapiens, UniProt P41143)
[10] = target: T1, Gamma-aminobutyric acid receptor subunit alpha-1; remark: listed apart in the source
[11] = target: T4, 5-hydroxytryptamine receptor 3A (Homo sapiens, UniProt P46098); format: functional
T4 sequence (P46098 whole entry): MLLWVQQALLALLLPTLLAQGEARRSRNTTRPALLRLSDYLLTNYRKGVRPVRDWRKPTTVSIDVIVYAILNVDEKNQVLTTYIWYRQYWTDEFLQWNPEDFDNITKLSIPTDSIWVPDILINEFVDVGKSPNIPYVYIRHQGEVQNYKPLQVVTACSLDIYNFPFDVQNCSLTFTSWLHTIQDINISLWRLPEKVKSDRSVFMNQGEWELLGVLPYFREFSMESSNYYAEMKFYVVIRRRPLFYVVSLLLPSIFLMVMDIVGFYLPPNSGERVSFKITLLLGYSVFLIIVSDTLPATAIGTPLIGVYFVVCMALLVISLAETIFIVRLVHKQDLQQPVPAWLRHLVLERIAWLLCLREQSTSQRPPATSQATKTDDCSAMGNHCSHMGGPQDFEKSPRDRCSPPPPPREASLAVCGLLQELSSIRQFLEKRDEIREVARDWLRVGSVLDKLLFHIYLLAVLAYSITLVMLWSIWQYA

[12] = target: Kappa-type opioid receptor (Homo sapiens, UniProt P41145)
[13] = target: 5-hydroxytryptamine receptor 2B (Homo sapiens, UniProt P41595); format: functional, cell-based
[14] = target: T5, 5-hydroxytryptamine receptor 2C (Homo sapiens, UniProt P28335)
T5 sequence (P28335 whole entry): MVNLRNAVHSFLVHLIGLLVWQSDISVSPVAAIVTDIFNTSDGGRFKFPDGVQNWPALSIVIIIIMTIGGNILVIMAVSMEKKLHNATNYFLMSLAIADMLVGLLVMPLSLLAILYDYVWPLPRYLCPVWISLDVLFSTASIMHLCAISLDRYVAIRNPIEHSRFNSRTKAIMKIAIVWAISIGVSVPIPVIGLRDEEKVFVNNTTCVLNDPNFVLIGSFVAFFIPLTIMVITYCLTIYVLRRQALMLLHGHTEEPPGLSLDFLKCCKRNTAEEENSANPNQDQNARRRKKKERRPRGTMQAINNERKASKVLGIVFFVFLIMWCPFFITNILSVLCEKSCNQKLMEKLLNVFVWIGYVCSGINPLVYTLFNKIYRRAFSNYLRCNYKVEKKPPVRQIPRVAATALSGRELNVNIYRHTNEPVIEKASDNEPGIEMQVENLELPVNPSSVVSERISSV
Also: assay procedure not described here.

T1 sequence (P62813 whole entry): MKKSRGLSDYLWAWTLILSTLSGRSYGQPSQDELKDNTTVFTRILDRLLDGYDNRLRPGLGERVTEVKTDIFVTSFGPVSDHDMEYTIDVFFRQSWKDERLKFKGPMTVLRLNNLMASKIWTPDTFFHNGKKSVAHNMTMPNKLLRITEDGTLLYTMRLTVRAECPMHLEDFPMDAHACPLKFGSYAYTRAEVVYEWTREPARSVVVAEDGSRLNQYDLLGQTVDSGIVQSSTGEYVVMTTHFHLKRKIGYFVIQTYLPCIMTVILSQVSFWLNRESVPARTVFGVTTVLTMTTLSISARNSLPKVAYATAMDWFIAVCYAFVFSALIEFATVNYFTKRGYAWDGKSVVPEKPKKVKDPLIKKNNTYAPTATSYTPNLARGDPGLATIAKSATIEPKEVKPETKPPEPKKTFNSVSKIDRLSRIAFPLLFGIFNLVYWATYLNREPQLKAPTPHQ
Chain of Histamine H1 receptor (P35367 whole entry): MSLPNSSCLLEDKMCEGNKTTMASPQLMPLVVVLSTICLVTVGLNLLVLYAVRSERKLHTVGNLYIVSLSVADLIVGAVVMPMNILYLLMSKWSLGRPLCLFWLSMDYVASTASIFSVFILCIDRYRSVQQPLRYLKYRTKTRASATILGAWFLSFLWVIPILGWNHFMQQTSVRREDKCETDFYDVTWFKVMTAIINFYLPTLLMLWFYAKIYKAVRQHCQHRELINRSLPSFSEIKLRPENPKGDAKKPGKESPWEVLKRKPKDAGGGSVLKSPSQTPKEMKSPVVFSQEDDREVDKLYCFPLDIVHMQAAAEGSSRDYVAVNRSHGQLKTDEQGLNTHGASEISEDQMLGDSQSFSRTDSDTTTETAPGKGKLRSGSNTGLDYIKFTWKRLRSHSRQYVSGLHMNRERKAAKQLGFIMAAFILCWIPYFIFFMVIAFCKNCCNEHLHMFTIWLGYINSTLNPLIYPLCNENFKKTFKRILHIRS
Chain of Gamma-aminobutyric acid receptor subunit alpha-1/alpha-2/beta-2/gamma-2 (P14867 whole entry): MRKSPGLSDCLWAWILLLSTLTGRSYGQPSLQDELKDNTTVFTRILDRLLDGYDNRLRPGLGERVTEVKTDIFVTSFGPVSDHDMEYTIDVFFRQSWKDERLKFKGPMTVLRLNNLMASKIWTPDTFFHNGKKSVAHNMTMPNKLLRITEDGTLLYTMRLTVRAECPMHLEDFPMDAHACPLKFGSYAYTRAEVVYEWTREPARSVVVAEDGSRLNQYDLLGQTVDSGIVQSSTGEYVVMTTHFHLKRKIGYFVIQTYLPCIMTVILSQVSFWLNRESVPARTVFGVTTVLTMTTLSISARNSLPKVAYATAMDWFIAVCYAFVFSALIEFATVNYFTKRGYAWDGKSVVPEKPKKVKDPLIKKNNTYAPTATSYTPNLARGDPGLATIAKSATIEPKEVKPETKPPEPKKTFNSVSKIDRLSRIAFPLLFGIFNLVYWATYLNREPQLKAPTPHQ
Chain of Gamma-aminobutyric acid receptor subunit alpha-1/alpha-2/beta-2/gamma-2 (P47870 whole entry): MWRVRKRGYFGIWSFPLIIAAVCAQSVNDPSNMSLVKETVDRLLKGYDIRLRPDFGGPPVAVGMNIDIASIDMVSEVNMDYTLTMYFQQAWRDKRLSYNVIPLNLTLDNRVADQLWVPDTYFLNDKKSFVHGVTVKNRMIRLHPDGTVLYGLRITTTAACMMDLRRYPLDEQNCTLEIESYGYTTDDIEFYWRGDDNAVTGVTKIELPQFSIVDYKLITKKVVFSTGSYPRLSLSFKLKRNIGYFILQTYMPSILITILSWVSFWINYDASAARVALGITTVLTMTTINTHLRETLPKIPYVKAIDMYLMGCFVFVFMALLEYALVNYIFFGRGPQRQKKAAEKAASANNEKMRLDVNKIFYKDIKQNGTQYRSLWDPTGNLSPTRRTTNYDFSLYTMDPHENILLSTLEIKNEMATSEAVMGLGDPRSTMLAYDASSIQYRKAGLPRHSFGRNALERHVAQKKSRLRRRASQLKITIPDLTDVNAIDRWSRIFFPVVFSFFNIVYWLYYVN
Chain of Gamma-aminobutyric acid receptor subunit alpha-1/alpha-2/beta-2/gamma-2 (P18507 whole entry): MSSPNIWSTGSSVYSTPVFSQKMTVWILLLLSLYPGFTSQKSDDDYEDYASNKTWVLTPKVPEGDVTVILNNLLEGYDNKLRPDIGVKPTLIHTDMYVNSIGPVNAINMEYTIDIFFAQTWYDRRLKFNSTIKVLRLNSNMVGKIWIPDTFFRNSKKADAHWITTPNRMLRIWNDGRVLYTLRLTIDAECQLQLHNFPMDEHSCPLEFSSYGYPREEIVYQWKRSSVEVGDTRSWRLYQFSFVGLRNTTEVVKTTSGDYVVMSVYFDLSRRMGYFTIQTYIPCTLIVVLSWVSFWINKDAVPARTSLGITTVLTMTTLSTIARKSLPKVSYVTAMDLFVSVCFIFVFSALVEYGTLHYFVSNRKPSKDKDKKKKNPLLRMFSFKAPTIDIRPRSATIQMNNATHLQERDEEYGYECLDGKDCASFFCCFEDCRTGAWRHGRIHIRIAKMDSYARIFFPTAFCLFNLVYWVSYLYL
Chain of Gamma-aminobutyric acid receptor subunit alpha-1/alpha-2/beta-2/gamma-2 (P47869 whole entry): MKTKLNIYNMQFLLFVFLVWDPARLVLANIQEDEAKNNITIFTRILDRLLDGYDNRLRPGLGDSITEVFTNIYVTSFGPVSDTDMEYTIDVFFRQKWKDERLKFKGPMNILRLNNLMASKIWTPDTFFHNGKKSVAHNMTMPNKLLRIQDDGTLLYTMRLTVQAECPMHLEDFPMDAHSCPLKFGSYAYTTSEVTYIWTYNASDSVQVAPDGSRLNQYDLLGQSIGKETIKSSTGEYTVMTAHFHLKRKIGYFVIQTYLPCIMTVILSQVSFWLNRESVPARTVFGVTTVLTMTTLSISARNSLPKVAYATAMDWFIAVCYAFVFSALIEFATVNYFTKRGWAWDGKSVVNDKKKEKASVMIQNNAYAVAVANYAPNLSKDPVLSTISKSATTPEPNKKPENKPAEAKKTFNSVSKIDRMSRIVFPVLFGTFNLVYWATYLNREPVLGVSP

SMILES | AC50 [2] [µM] | AC50 [3] [µM] | AC50 [7] [µM] | other results
O=C(O)c1cccc(-c2noc(-c3ccccc3F)n2)c1 | > 30 | > 30 | > 30 | AC50 [1]: > 30 µM; AC50 (Histamine H1 receptor): > 10 µM; AC50 [4]: > 30 µM; AC50 [5]: > 10 µM; AC50 [6]: > 30 µM; AC50 (Adenosine receptor A2a): > 30 µM
Nc1nc(-n2cc(C(=O)O)c(=O)c3cc(F)c(N4CC(O)C4)c(Cl)c32)c(F)cc1F [DELAFLOXACIN] | > 30 | > 30 | > 30 | AC50 [1]: > 30 µM
O=C(Nc1ccccc1)OCC(CN1CCCCC1)OC(=O)Nc1ccccc1 (centres undefined) [DIPERODON] | > 30 | > 30 | > 30 | AC50 (Cannabinoid receptor 1): > 30 µM; AC50 [8]: > 10 µM; AC50 (D(3) dopamine receptor): 1.3 µM; AC50 [9]: > 10 µM; AC50 (Histamine H1 receptor): > 10 µM; AC50 [10]: > 10 µM; AC50 [4]: > 10 µM; AC50 [5]: > 10 µM; AC50 [11]: > 10 µM; AC50 [12]: 1.42 µM; AC50 [6]: 1.1 µM; AC50 (Adenosine receptor A2a): > 30 µM; AC50 [13]: > 10 µM; AC50 [14]: > 10 µM
CC(C)Cc1ccc(C(C)C(=O)NO)cc1 (centres undefined) [IBUPROXAM] | > 30 | 20.1 | > 30 | –
CC/C=C\C/C=C\C/C=C\C/C=C\C/C=C\CCCC(=O)O [ICOSAPENT] | > 30 | > 30 | > 30 | –
CS(=O)(=O)Nc1cc2occ(NC=O)c(=O)c2cc1Oc1ccccc1 [IGURATIMOD] | > 30 | > 30 | > 30 | AC50 (D(3) dopamine receptor): > 30 µM; AC50 [9]: > 30 µM; AC50 (Histamine H1 receptor): > 30 µM; AC50 [4]: > 30 µM; AC50 [5]: > 30 µM; AC50 [6]: > 30 µM; AC50 [13]: > 30 µM
CCN(CC)CCNc1ccc(C)c2sc3ccccc3c(=O)c12 [LUCANTHONE] | > 30 | 4.21 | > 30 | –
CC[C@@H]1/C=C(\C)C[C@H](C)C[C@H](OC)[C@H]2O[C@@](O)(C(=O)C(=O)N3CCCC[C@H]3C(=O)O[C@H](/C(C)=C/[C@@H]3CC[C@H](Cl)[C@H](OC)C3)[C@H](C)[C@@H](O)CC1=O)[C@H](C)C[C@@H]2OC [PIMECROLIMUS] | > 10 | > 30 | > 30 | –
CC(C(=O)O)c1ccc2c(c1)Cc1cccnc1O2 (centres undefined) [PRANOPROFEN] | > 30 | > 30 | > 30 | –
CN1CCC2=C(C1)c1ccccc1Cc1ccccc12 [SETIPTILINE] | > 30 | 8.28 | > 30 | –
COc1ccc(CCC(C)NCC(O)c2ccc(O)c([S+](C)[O-])c2)cc1 (centres undefined) [SULFINALOL] | > 30 | > 30 | > 30 | –
C[C@@H]1O[C@@H](OC[C@H]2O[C@@H](Oc3c(-c4ccc(OCCO)c(OCCO)c4)oc4cc(OCCO)cc(O)c4c3=O)[C@H](O)[C@@H](O)[C@@H]2O)[C@H](O)[C@H](O)[C@H]1O [TROXERUTIN] | > 30 | > 30 | > 30 | –

From ChEMBL document CHEMBL5291721, “A preclinical secondary pharmacology resource illuminates target-adverse drug reaction associations of marketed drugs” (Nat Commun, 2023)
